# Earlier results, collected in US12329899B2, “Dry powder inhaler and methods of use” (Aspeya US Inc., priority 2012, dated 2025).
# Assays:
# [1] = oral solution of 650 mg, four male subjects
# [2] = oral administration, 325 mg
# platelet = conditions: 50 mg/day, some patients; the remainder needed over 50 mg/day
# [3] = any dose above 30 mg daily
# [4] = 75 mg/day
compound,measurement,setting,value
"CC(=O)Oc1ccccc1C(=O)O [aspirin, acetylsalicylic acid]",dose that reached the peripheral circulation intact (AUC oral vs intravenous),[1],68%
same,loss or inactivation of the oral dosage due to the first pass effect in the gut and liver,oral administration,approximately ⅔
same,fraction of the dose bioavailable due to the first pass effect,taken orally,about one to two-thirds
same,increase of major gastrointestinal and extracranial bleeds,[2],over 50%
same,platelet inhibition,platelet,satisfactory platelet inhibition
same,vascular events prevented,[3],13%
same,"gastrointestinal side-effects, bleeding episodes",[4],significant excess of bleeding episodes
same,risk of stroke or death,[4]; patients with cerebrovascular ischaemic events,significantly reduces the risk of stroke or death
